Results taken from paper PMC11680018, “Study of Cytotoxicity of Spiro-Fused [3-Azabicyclo[3.1.0]hexane]oxindoles and Cyclopropa[a]pyrrolizidine-oxindoles Against Tumor Cell Lines” (Pharmaceuticals, 2024).
Values joined by “and” are separate entries in the source; they are usually repeats but may differ in a detail not shown here. Equal entries are not always repeated. Where two headings read alike, the source gives them in different places.

Assays:
[1] = test system: K562, Jurkat, HeLa, Sk-mel-2, MCF-7 and CT26 cell lines; assay: MTS cell proliferation assay, panel of cell lines (summary statements); type: cell-based
Procedure: Cancer cell lines are valuable in vitro model systems that are widely used in cancer research and drug discovery. Their use is mainly linked to their possibility to provide for experimental purposes an unlimited source of biological material. Here, the 24 and 72 h in vitro MTS assay was used to determine the antiproliferative activity of synthesized spiro-fused cyclopropa[a]pyrrolizidine-2,3′-oxindoles and [3-azabicyclo[3.1.0]hexane]-oxindoles against human erythroleukemia (K562), acute T cell leukemia (Jurkat), cervical carcinoma (HeLa), melanoma (Sk-mel-2), breast cancer adenocarcinoma (MCF-7) as well as mouse colon carcinoma (CT26) cell lines. […] The full results of these investigations are presented in the Supporting Information Figures S1–S6. […] An evaluation of the cytotoxicity of the selected compounds towards normal cells (peripheral blood mononuclear cells) was performed additionally to understand their respective relative selectivities. The selectivity index was obtained using the ratio of measured cytotoxicity between the PBMC cells and each of the cancer cell lines, and the results are presented in Table 3.
The human erythroleukemia (K-562), cervical carcinoma (HeLa) as well as mouse colon carcinoma (CT26) cell lines were obtained from the Bank of Cell Cultures of the Institute of Cytology of the Russian Academy of Sciences; the human melanoma (Sk-mel-2) cell line was obtained from the Bank of Cell Cultures of the Institute of Cytology and Genetics, Siberian Branch of the Russian Academy of Sciences. The acute T cell leukemia (Jurkat) cell line was obtained from the Bank of Cell Cultures of the Institute of Immunology of the Russian Academy of Medical Sciences. The peripheral blood mononuclear cells (PBMC) were isolated from the blood of healthy donors. K-562, Jurkat, MCF-7, PBMC and CT26 cells were grown on RPMI medium (Hyclone, GE Healthcare Life Sciences, Logan, UT, USA) supplemented with 10% (v/v) fetal bovine serum (Hyclone, GE Healthcare Life Sciences, Logan, UT, USA) and gentamicin (Sigma-Aldrich, St. Louis, MO, USA) at 37 °C in a humidified atmosphere with 5% CO2. HeLa and Sk-mel-2 cells were cultured with the same supplements and conditions in DMEM medium (Hyclone, GE Healthcare Life Sciences, Logan, UT, USA).
To evaluate the in vitro toxicity of the compounds synthesized, cells were seeded into 96-well plates at a density of 5 × 10^3 cells per well. On the next day, the tested compounds were added to the wells at concentrations ranging from 1 to 30 μg/mL, followed by incubation for 1 and 3 days. Cell proliferation was determined by adding 20 μL of MTS reagent (BioVision, Milpitas, CA, USA) stock solution per well. The plates were incubated for 2 h at 37 °C in a humidified, 5% CO2 atmosphere. The plates were then read at 495 nm using a plate spectrophotometer (Multiskan GO, Thermo Fisher Scientific, Waltham, MA, USA). All samples were measured in triplicate.

[2] = test system: human melanoma (Sk-mel-2) cell line; assay: Cell motility by scratch test; type: cell-based; conditions: 10 μg/mL, 36 h, serum-free DMEM; nontreated cells 69.5 ± 17.2
Procedure: To assess the potential ability of spiro-fused [3-azabicyclo[3.1.0]hexane]oxindoles 4, 11, 12, 18, 24 and cyclopropa[a]pyrrolizidine-2,3′-oxindole 2 to inhibit metastasis associated with cell motility, a scratch test was performed on the human melanoma (Sk-mel-2) cell line. Different fields were analyzed by bright field, and each scratch area was photographed at 0 and 36 h for non-toxic and fast cell visualization. Nontreated Sk-mel-2 cells filled 69.5 ± 17.2, 41.5 ± 5.3, 59.7 ± 8.1, 49.3 ± 5.3, 43.0 ± 12.6, 26.1 ± 2.5 and 55.9 ± 8.6% of the scratched strip while under treatment with spiro-fused oxindole derivatives 2, 4, 11, 12, 18 and 24 cells, respectively.
Cells were seeded at a density of 5 × 10^5 cells per dish onto petri dishes and grown to confluency. A 200 μL pipette tip was used to make scratch wounds and detached cells were removed after that by washing with phosphate-buffered saline. Culture media was replaced with serum-free DMEM in order to inhibit cell proliferation. Compounds to be screened were added at a dose of 10 μg/mL to the cultures and incubated for 36 h. Different fields were analyzed by bright field, and each scratch area was photographed at 0 and 36 h. Images were captured using an Axio Observer Z1 confocal microscope (Carl Zeiss MicroImaging GmbH, Jena, Germany). The percent of wound closure in five randomly chosen fields was calculated with ImageJ software, 1.52v.

K562 cells = assay: Cell cycle analysis by flow cytometry; type: cell-based, human; conditions: 24 h; for K562 cells in SubG1 phase: control 4.5 ± 0.9; for K562 cells in G2/M phase: control 23.1 ± 1.7; for K562 cells in S phase: control 31.9 ± 1.0; for K562 cells in G0/G1 phase: control 40.5 ± 1.3; for Total percentage of K562 cells in the SubG1 and G0/G1 phases: control 45.0%
From the text: Since growth inhibition may be a result of cell cycle arrest at a particular point, the specific antiproliferative activity of several cycloadducts was further evaluated by flow cytometry to study their impact on the progression of the cell cycle in K562 cells. The assay utilizes propidium iodide-based staining of DNA content to distinguish and measure the accumulation of cells in each cell cycle phase (SubG, G0/G1, S and G2/M).
The distribution of K562 cells in the G0/G1-, S- and G2/M-phases of the cell cycle was obtained by quantification of DNA content using flow cytometry in DAPI-stained cells. Briefly, cells were seeded at a density of 5 × 10^4 cells per well in 24-well plates. […] After incubation with drugs, the cells were harvested by pipetting. This was followed by treatment with 0.2 mg/mL saponin (Fluka, Waltham, MA, USA) and 0.05 mg/mL DAPI (Thermo scientific, Rockford, IL, USA). After washing, the samples were analyzed using a standard flow cytometer (BD FACSCanto II, Becton Dickinson, San Jose, CA, USA). A total of 10,000 events were acquired for the samples. Data processing was performed using the BD FACSDiva 9.0 software.

[3] = 72 h, range over four cell lines and compounds, read-out: IC50 against the Jurkat, K-562, HeLa and Sk-mel-2 cell lines

| IC50 [1, 3] | Structure (SMILES) | IC50 ([1]; range over cell lines, except for the breast cancer cell line, read-out: IC50 over the tested cell lines) | Part of the scratched strip filled by Sk-mel-2 cells [2] | K562 cells in SubG1 phase (K562 cells; 5 μg/mL) | K562 cells in G2/M phase (K562 cells; 5 μg/mL) | K562 cells in S phase (K562 cells; 5 μg/mL) | K562 cells in G0/G1 phase (K562 cells; 5 μg/mL) | K562 cells in SubG1 phase (K562 cells; 10 μg/mL) | K562 cells in G2/M phase (K562 cells; 10 μg/mL) | K562 cells in S phase (K562 cells; 10 μg/mL) | K562 cells in G0/G1 phase (K562 cells; 10 μg/mL) | Total percentage of K562 cells in the SubG1 and G0/G1 phases (K562 cells; 10 μg/mL) | K562 cells in SubG1 phase (K562 cells; 20 μg/mL) | K562 cells in G2/M phase (K562 cells; 20 μg/mL) | K562 cells in S phase (K562 cells; 20 μg/mL) | K562 cells in G0/G1 phase (K562 cells; 20 μg/mL) |
| --- | --- | --- | --- | --- | --- | --- | --- | --- | --- | --- | --- | --- | --- | --- | --- | --- |
| – | O=C1Nc2ccc([N+](=O)[O-])cc2C12N1CCCC1C1(c3ccccc3)C(c3ccccc3)C12c1ccccc1 (stereo not shown) [Compound 2] | 2 µg/mL to 12 µg/mL and 4 µM to 23 µM | 41.5 ± 5.3% | 5.3 ± 0.3% | 17.4 ± 0.4% | 29.5 ± 0.6% | 47.7 ± 0.5% | 7.7% and 7.7 ± 0.4% | 7.8 ± 0.3% | 15.6 ± 0.4% | 68.8 ± 0.5% | 74.0–77.5% | 5.8 ± 0.3% | 7.3 ± 0.2% | 14.5 ± 0.2% | 72.5 ± 0.5% |
| 2 to 10 µM | CC(C)C1NC2(C(=O)Nc3ccccc32)C2(c3ccccc3)C(c3ccccc3)C12c1ccccc1 (stereo not shown) [Compound 8] | – | – | 2.1 ± 0.1% | 9.2 ± 0.3% | 25.7 ± 0.1% | 63.1 ± 0.4% | 4.1 ± 0.2% | 5.9 ± 0.2% | 16.6 ± 0.2% | 73.5% and 73.5 ± 0.5% | 74.0–77.5% | 3.6 ± 0.2% | 7.1 ± 0.1% | 17.0 ± 0.2% | 72.4 ± 0.2% |
| – | COC(=O)C1C2(c3ccccc3)C(Cc3ccc(O)cc3)NC3(C(=O)Nc4ccccc43)C12c1ccccc1 (stereo not shown) [Compound 17] | – | – | 2.5 ± 0.3% | 16.7 ± 1.0% | 25.1 ± 0.4% | 55.6 ± 0.3% | 5.3 ± 0.4% | 8.8 ± 0.4% | 14.3 ± 0.1% | 71.5 ± 0.5% | 74.0–77.5% | 1.8 ± 0.2% | 7.2 ± 0.3% | 16.4 ± 0.5% | 74.5 ± 0.8% |
| 2 to 10 µM | NC(=O)CC1NC2(C(=O)Nc3ccccc32)C2(c3ccccc3)C(c3ccccc3)C12c1ccccc1 (stereo not shown) [Compound 18] | – | 26.1 ± 2.5% | 3.2 ± 0.1% | 14.4 ± 0.5% | 31.4 ± 0.1% | 51.0 ± 0.7% | 3.9 ± 0.2% | 7.0 ± 0.4% | 19.0 ± 0.6% | 70.1 ± 0.5% | 74.0–77.5% | 3.6 ± 0.1% | 8.6 ± 0.3% | 22.8 ± 0.4% | 65.0 ± 0.4% |
| 2 to 10 µM | CSCCC1NC2(C(=O)Nc3ccccc32)C2(c3ccccc3)C(c3ccccc3)C12c1ccccc1 (stereo not shown) [Compound 24] | – | 55.9 ± 8.6% | – | – | – | – | – | – | – | – | – | – | – | – | – |

| Structure (SMILES) | IC50 [1, 3] | IC50 ([1]; range over cell lines, except for the breast cancer cell line, read-out: IC50 over the tested cell lines) | Part of the scratched strip filled by Sk-mel-2 cells [2] | K562 cells in SubG1 phase (K562 cells; 5 μg/mL) | K562 cells in G2/M phase (K562 cells; 5 μg/mL) | K562 cells in S phase (K562 cells; 5 μg/mL) | K562 cells in G0/G1 phase (K562 cells; 5 μg/mL) | K562 cells in SubG1 phase (K562 cells; 10 μg/mL) | K562 cells in G2/M phase (K562 cells; 10 μg/mL) | K562 cells in S phase (K562 cells; 10 μg/mL) | K562 cells in G0/G1 phase (K562 cells; 10 μg/mL) | Total percentage of K562 cells in the SubG1 and G0/G1 phases (K562 cells; 10 μg/mL) | K562 cells in SubG1 phase (K562 cells; 20 μg/mL) | K562 cells in G2/M phase (K562 cells; 20 μg/mL) | K562 cells in S phase (K562 cells; 20 μg/mL) | K562 cells in G0/G1 phase (K562 cells; 20 μg/mL) |
| --- | --- | --- | --- | --- | --- | --- | --- | --- | --- | --- | --- | --- | --- | --- | --- | --- |
| CC[C@H](C)C1NC2(C(=O)Nc3ccccc32)C2(c3ccccc3)C(C(=O)OC)C12c1ccccc1 (stereo partly shown) [Compound 4] | 2 to 10 µM | – | 59.7 ± 8.1% | 4.3 ± 0.2% | 16.5 ± 0.2% | 26.6 ± 0.7% | 52.6 ± 0.7% | 4.8 ± 0.5% | 11.9 ± 0.6% | 26.4 ± 0.3% | 56.9 ± 0.6% | – | 4.9 ± 0.2% | 6.9 ± 0.4% | 17.4 ± 0.4% | 71.2 ± 0.4% |
